Data as given in ChEMBL document CHEMBL5241112, “Insights into the recent progress in the medicinal chemistry of pyranopyrimidine analogs” (RSC Med Chem, 2022).
In brackets after ≈: the same amount, converted by molar mass.

Columns and labels:
Escherichia coli [1] = assay: Antimicrobial activity against Escherichia coli assessed as diameter of inhibition zone by agar well diffusion method; format: functional
Bacillus subtilis = assay: Antimicrobial activity against Bacillus subtilis assessed as diameter of inhibition zone by agar well diffusion method; format: functional
Clostridium tetani = assay: Antibacterial activity against Clostridium tetani MTCC 449 assessed as bacterial growth inhibition by broth microdilution method; format: functional
Plasmodium falciparum = assay: microbe, parasite or virus in culture
[2] = test system: Mycobacterium tuberculosis; assay: Antitubercular activity against Mycobacterium tuberculosis H37Rv assessed as bacterial growth inhibition at 250 ug/ml; format: functional
[3] = test system: Mycobacterium tuberculosis; assay: Antitubercular activity against Mycobacterium tuberculosis H37Rv assessed as bacterial growth inhibition at 100 ug/ml; format: functional
Candida albicans = assay: Antifungal activity against Candida albicans MTCC 3008 assessed as fungal growth inhibition by broth microdilution method; format: functional
Aspergillus fumigatus = assay: Antifungal activity against Aspergillus fumigatus MTCC 227 assessed as fungal growth inhibition by broth microdilution method; format: functional
DLD-1 = assay: Anticancer activity against human DLD-1 cells assessed as cell growth inhibition incubated for 24 hrs; format: functional, cell-based; settings: DLD-1, 24 h
NUGC = assay: Anticancer activity against human NUGC cells assessed as cell growth inhibition incubated for 24 hrs; format: functional, cell-based
[4] = test system: Human immunodeficiency virus 2; assay: Antiviral activity against HIV2 ROD infected in human MT4 cells assessed as reduction in virus-induced cytopathic effect by MTT assay; format: functional, organism-based; settings: Human immunodeficiency virus 2, ROD
[5] = test system: Human immunodeficiency virus 1; assay: Antiviral activity against HIV1 IIIB infected in human MT4 cells assessed as reduction in virus-induced cytopathic effect by MTT assay; format: functional, organism-based; settings: Human immunodeficiency virus 1, IIIB
HCT-116 [6] = assay: Anticancer activity against human HCT-116 cells assessed as reduction in cell viability incubated for 24 hrs by MTT colorimetric assay; format: functional, cell-based; settings: HCT-116, 24 h
DNA topoisomerase II = DNA topoisomerase II (Homo sapiens, UniProt P11388+Q02880); assay: Inhibition of DNA topoisomerase 2 (unknown origin); format: protein assay
A549 = assay: Anticancer activity against human A549 cells assessed as reduction in cell viability incubated for 24 hrs by MTT assay; format: functional, cell-based; settings: A549, 24 h
HepG2 [7] = assay: Anticancer activity against human HepG2 cells assessed as reduction in cell viability; format: functional, cell-based
HCT-116 [8] = assay: cells; settings: Homo sapiens
HepG2 [9] = assay: Anticancer activity against human HepG2 cells assessed as reduction in cell viability incubated for 24 hrs by MTT colorimetric assay; format: functional, cell-based; settings: HepG2, 24 h
MCF7 = assay: Anticancer activity against human MCF7 cells assessed as reduction in cell viability incubated for 24 hrs by MTT colorimetric assay; format: functional, cell-based; settings: MCF7, 24 h
PC-3 = assay: Anticancer activity against human PC-3 cells assessed as reduction in cell viability; format: functional, cell-based
[10] = Antioxidant activity assessed as DPPH radical scavenging activity at 75 ug/ml incubated for 30 mins by spectrophotometric analysis; format: functional; settings: dose 75.0 µg/ml
[11] = Antioxidant activity assessed as DPPH radical scavenging activity at 100 ug/ml incubated for 30 mins by spectrophotometric analysis; format: functional; settings: dose 100.0 µg/ml
[12] = Antioxidant activity assessed as DPPH radical scavenging activity at 50 ug/ml incubated for 30 mins by spectrophotometric analysis; format: functional; settings: dose 50.0 µg/ml
Salmonella typhimurium = assay: Antibacterial activity against Salmonella typhimurium MTCC 98 assessed as bacterial growth inhibition by broth microdilution method; format: functional, Salmonella enterica subsp. enterica serovar Typhimurium; settings: Salmonella enterica
[13] = Antioxidant activity assessed as DPPH radical scavenging activity at 25 ug/ml incubated for 30 mins by spectrophotometric analysis; format: functional; settings: dose 25.0 µg/ml
Pseudomonas aeruginosa [14] = assay: Antibacterial activity against Pseudomonas aeruginosa ATCC 27853 assessed as diameter of inhibition zone incubated for 24 hrs by disc diffusion assay; format: functional
Escherichia coli [15] = assay: Antibacterial activity against Escherichia coli ATCC 25922 assessed as diameter of inhibition zone incubated for 24 hrs by disc diffusion assay; format: functional
Escherichia coli [16] = assay: Antimicrobial activity against Escherichia coli assessed as diameter of inhibition zone at 1.2 mg/ml incubated for 12 hrs by agar disk diffusion method; format: functional
Bacillus cereus [17] = assay: Antimicrobial activity against Bacillus cereus assessed as diameter of inhibition zone at 5.0 mg/ml incubated for 12 hrs by agar disk diffusion method; format: functional
Escherichia coli [18] = assay: Antimicrobial activity against Escherichia coli assessed as diameter of inhibition zone at 2.5 mg/ml incubated for 12 hrs by agar disk diffusion method; format: functional
Staphylococcus aureus [19] = assay: Antimicrobial activity against Staphylococcus aureus assessed as diameter of inhibition zone at 5.0 mg/ml incubated for 12 hrs by agar disk diffusion method; format: functional
Pseudomonas aeruginosa [20] = assay: Antibacterial activity against Pseudomonas aeruginosa ATCC 27853 assessed as inhibition of bacterial growth incubated for 24 hrs by broth macrodilution method; format: functional
Bacillus cereus [21] = assay: Antimicrobial activity against Bacillus cereus assessed as diameter of inhibition zone at 2.5 mg/ml incubated for 12 hrs by agar disk diffusion method; format: functional
Bacillus cereus [22] = assay: Antimicrobial activity against Bacillus cereus assessed as diameter of inhibition zone at 1.2 mg/ml incubated for 12 hrs by agar disk diffusion method; format: functional
Pseudomonas aeruginosa [23] = assay: Antimicrobial activity against Pseudomonas aeruginosa assessed as diameter of inhibition zone at 5.0 mg/ml incubated for 12 hrs by agar disk diffusion method; format: functional
Escherichia coli [24] = assay: Antimicrobial activity against Escherichia coli assessed as diameter of inhibition zone at 5.0 mg/ml incubated for 12 hrs by agar disk diffusion method; format: functional
Staphylococcus aureus [25] = assay: Antimicrobial activity against Staphylococcus aureus assessed as diameter of inhibition zone at 1.2 mg/ml incubated for 12 hrs by agar disk diffusion method; format: functional
Pseudomonas aeruginosa [26] = assay: Antimicrobial activity against Pseudomonas aeruginosa assessed as diameter of inhibition zone at 1.2 mg/ml incubated for 12 hrs by agar disk diffusion method; format: functional
Escherichia coli [27] = assay: Antibacterial activity against Escherichia coli ATCC 25922 assessed as inhibition of bacterial growth incubated for 24 hrs by broth macrodilution method; format: functional
Staphylococcus aureus [28] = assay: Antimicrobial activity against Staphylococcus aureus assessed as diameter of inhibition zone at 2.5 mg/ml incubated for 12 hrs by agar disk diffusion method; format: functional
Pseudomonas aeruginosa [29] = assay: Antimicrobial activity against Pseudomonas aeruginosa assessed as diameter of inhibition zone at 2.5 mg/ml incubated for 12 hrs by agar disk diffusion method; format: functional

For `CC(C)c1ccc(C2C(C#N)=C(N)Oc3[nH]c(=O)[nH]c(=O)c32)cc1` (centres undefined), the “diameter of the inhibition zone (DIZ)” value (Escherichia coli [1]) was 10.8 mm and the “diameter of the inhibition zone (DIZ)” value (Bacillus subtilis) was 13 mm.

For `Cc1nn(-c2ccccc2)c(-n2ccnc2)c1C1C(C#N)=C(N)Oc2[nH]c(=S)[nH]c(=O)c21` (centres undefined), the MIC (Clostridium tetani) was 100 µg/mL (≈ 225 µM), the IC50 (Plasmodium falciparum) was 0.97 µg/mL (≈ 2.18 µM) and the inhibition at 250 µg/mL [2] was 37%. For the same compound, the inhibition at 100 µg/mL [3] was 30%, the MIC (Candida albicans) was 500 µg/mL (≈ 1120 µM) and the MIC (Aspergillus fumigatus) was 200 µg/mL (≈ 450 µM).

Work on `N#CC1=C(N)C2C(=NC(n3[nH]c(N)cc3=O)=NC2c2ccc(Cl)cc2)OC1=O` (centres undefined) yielded an IC50 (DLD-1) of 2130 nM and an IC50 (NUGC) of 2210 nM.

Compound `Cc1cn([C@H]2C[C@H](N=[N+]=[N-])[C@@H](CO)O2)c(=O)[nH]c1=O` [ZIDOVUDINE] has an EC50 [4] of 0.00094 µg/mL (≈ 0.00352 µM) and an EC50 [5] of 0.0022 µg/mL (≈ 0.00823 µM).

`COc1cccc2c1C(=O)c1c(O)c3c(c(O)c1C2=O)C[C@@](O)(C(=O)CO)C[C@@H]3O[C@H]1C[C@H](N)[C@H](O)[C@H](C)O1` [DOXORUBICIN] gave an IC50 (HCT-116 [6]) of 467 nM, an IC50 (DNA topoisomerase II) of 940 nM and an IC50 (A549) of 140 nM. For the same compound, the IC50 (HepG2 [7]) was 7940 nM, the IC50 (HCT-116 [8]) was 2610 nM and the IC50 (HepG2 [9]) was 467 nM. The IC50 (MCF7) was 467 nM and the IC50 (PC-3) was 0.467 µg/mL (≈ 0.859 µM).

`O=c1c(C2c3c(-c4ccccc4)n[nH]c3Oc3[nH]c(=S)[nH]c(=S)c32)coc2ccccc12` (centres undefined) showed an Activity [10] of 84.3%, an Activity [11] of 86.4% and an Activity [12] of 66.5%.

With `Cc1nn(-c2ccccc2)c(-n2ccnc2)c1C1C(C#N)=C(N)Oc2c1c(=O)n(C)c(=O)n2C` (centres undefined) the MIC (Clostridium tetani) was 100 µg/mL (≈ 219 µM), the MIC (Salmonella typhimurium) was 100 µg/mL (≈ 219 µM) and the IC50 (Plasmodium falciparum) was 0.082 µg/mL (≈ 0.18 µM). It also gave an inhibition at 250 µg/mL [2] of 37%, an inhibition at 100 µg/mL [3] of 30% and an MIC (Candida albicans) of 500 µg/mL (≈ 1100 µM). The MIC (Aspergillus fumigatus) was 200 µg/mL (≈ 438 µM).

`CC(=O)C1=C(C)Oc2[nH]c(=O)[nH]c(=O)c2C1c1cccc([N+](=O)[O-])c1` (centres undefined) showed an IC50 (HepG2 [7]) of 5.21 µg/mL, an IC50 (HCT-116 [8]) of 7.65 µg/mL and an IC50 (PC-3) of 4.8 µg/mL (≈ 14 µM).

Compound `O=c1c(C2c3c(-c4ccccc4)n[nH]c3Oc3[nH]c(=S)n(-c4ccccc4)c(=S)c32)coc2ccccc12` (centres undefined) has an Activity [13] of 61.6% and an Activity [12] of 66.4%.

With `CCOC(=O)C1=C(N)Oc2[nH]c(=O)[nH]c(=O)c2C1c1cccc([N+](=O)[O-])c1` (centres undefined) the IC50 (HepG2 [7]) was 0.25 µg/mL, the IC50 (HCT-116 [8]) was 0.25 µg/mL and the IC50 (PC-3) was 0.25 µg/mL (≈ 0.668 µM).

For GENTAMICIN, the inhibition zone (IZ) (Pseudomonas aeruginosa [14]) was 17.3 mm, the inhibition zone (IZ) (Escherichia coli [15]) was 21.3 mm and the inhibition zone (IZ) (Escherichia coli [16]) was 11 mm. It also gave an inhibition zone (IZ) (Bacillus cereus [17]) of 18 mm, an inhibition zone (IZ) (Escherichia coli [18]) of 14 mm and an inhibition zone (IZ) (Staphylococcus aureus [19]) of 18 mm. For the same compound, the MIC (Pseudomonas aeruginosa [20]) was 15.4 µg/mL, the inhibition zone (IZ) (Bacillus cereus [21]) was 14 mm and the inhibition zone (IZ) (Bacillus cereus [22]) was 11 mm. The inhibition zone (IZ) (Pseudomonas aeruginosa [23]) was 18 mm, the inhibition zone (IZ) (Escherichia coli [24]) was 18 mm and the inhibition zone (IZ) (Staphylococcus aureus [25]) was 11 mm. The inhibition zone (IZ) (Pseudomonas aeruginosa [26]) was 11 mm, the MIC (Escherichia coli [27]) was 3.68 µg/mL and the inhibition zone (IZ) (Staphylococcus aureus [28]) was 14 mm. It also gave an inhibition zone (IZ) (Pseudomonas aeruginosa [29]) of 14 mm.
